This passage reports inhibition results from patent publication US20150011541A1, “PIPECOLATE-SULFONAMIDES FOR TREATMENT OF PSYCHIATRIC DISORDERS” (Max-Planck-Gesellschaft zur Förderung der Wissenschaften …, priority 2011, published 2015).

The term inhibition denotes the drop in the measured response relative to a control, in per cent.

Assay [1] has as its target T1, human FKBP51FK1 (Homo sapiens, UniProt Q13451).
T1 sequence (Q13451 42-130 limits assumed): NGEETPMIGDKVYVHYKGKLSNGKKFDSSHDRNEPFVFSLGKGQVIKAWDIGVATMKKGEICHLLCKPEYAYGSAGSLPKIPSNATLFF
The experiment in a line: Fluorescence polarization assay, binding to FK1 domain of FKBP51. As to conditions: at a concentration of 5 μM; library testing; read-out: FKBP 51 FK1 % inhibition. On the technique in general: In fluorescence polarisation assays a small probe gives low polarisation when free and higher when bound to something large.

The target in assay [2] is T2, human FKBP52FK1 (Homo sapiens, UniProt Q02790).
T2 sequence (Q02790 50-138 limits assumed): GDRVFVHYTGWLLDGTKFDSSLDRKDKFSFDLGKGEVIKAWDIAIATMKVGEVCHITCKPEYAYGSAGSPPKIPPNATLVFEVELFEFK
Briefly: Fluorescence polarization assay, binding to FK1 domain of FKBP52. As to conditions: at a concentration of 5 μM; library testing; read-out: FKBP52 FK1 % inhibition.

Turning to `COc1ccc(CC[C@@H](OC(=O)[C@@H]2CCCCN2S(=O)(=O)c2ccc(Oc3ccccc3)nc2)c2cccc(OCC(=O)O)c2)cc1OC` [Compound 43, 2-(3-((R)-3-(3,4-dimethoxyphenyl)-1-((S)-1-(6-phenoxypyridin-3-ylsulfonyl)piperidine-2-carbonyloxy)propyl)phenoxy)acetic acid], the inhibition at 5 µM was found to be 3.7% in assay [1] and 11.4% in assay [2].
`COc1ccc(CC[C@@H](OC(=O)[C@@H]2CCCCN2S(=O)(=O)c2ccc(-c3ccccc3)nc2)c2cccc(OCC(=O)O)c2)cc1OC` [Compound 44, 2-(3-((R)-3-(3,4-dimethoxyphenyl)-1-((S)-1-(6-phenylpyridin-3-ylsulfonyl)piperidine-2-carbonyloxy)propyl)phenoxy)acetic acid]: the inhibition at 5 µM in assay [1] was determined as 2.6%; in assay [2] it was 8.5%.
With `COc1ccc(CC[C@@H](OC(=O)[C@@H]2CCCCN2S(=O)(=O)c2ccccc2Cl)c2cccc(OCC(=O)O)c2)cc1OC` [Compound 45, 2-(3-((R)-1-((S)-1-(2-chlorophenylsulfonyl)piperidine-2-carbonyloxy)-3-(3,4-dimethoxyphenyl)propyl)phenoxy)acetic acid], the inhibition at 5 µM in assay [1] stood at 1.4%; in assay [2], 9.5%.
With `COc1ccc(CC[C@@H](OC(=O)[C@@H]2CCCCN2S(=O)(=O)c2c(Cl)cccc2Cl)c2cccc(OCC(=O)O)c2)cc1OC` [Compound 46, 2-(3-((R)-1-((S)-1-(2,6-dichlorophenylsulfonyl)piperidine-2-carbonyloxy)-3-(3,4-dimethoxyphenyl)propyl)phenoxy)acetic acid], the inhibition at 5 µM in assay [1] amounted to 3.2%; in assay [2], 9.5%.
For `COc1ccc(CC[C@@H](OC(=O)[C@@H]2CCCCN2S(=O)(=O)c2cccc(-c3nnc(C)o3)c2)c2cccc(OCC(=O)O)c2)cc1OC` [Compound 47, 2-(3-((R)-3-(3,4-dimethoxyphenyl)-1-((S)-1-(3-(5-methyl-1,3,4-oxadiazol-2-yl)phenylsulfonyl)piperidine-2-carbonyloxy)propyl)phenoxy)acetic acid], in that order: 4.9% and 3.8%.
As to `COc1ccc(CC[C@@H](OC(=O)[C@@H]2CCCCN2S(=O)(=O)c2ccc(C(F)(F)F)c(Cl)c2)c2cccc(OCC(=O)O)c2)cc1OC` [Compound 48, 2-(3-((R)-1-((S)-1-(3-chloro-4-(trifluoromethyl)phenylsulfonyl)piperidine-2-carbonyloxy)-3-(3,4-dimethoxyphenyl)propyl)phenoxy)acetic acid], the inhibition at 5 µM was -0.2% in assay [1] and 11.4% in assay [2].
Taken in the same sequence, the figures for `COc1ccc(CC[C@@H](OC(=O)[C@@H]2CCCCN2S(=O)(=O)c2cccc3c2ccn3C)c2cccc(OCC(=O)O)c2)cc1OC` [Compound 49, 2-(3-((R)-3-(3,4-dimethoxyphenyl)-1-((S)-1-(1-methyl-1H-indol-4-ylsulfonyl)piperidine-2-carbonyloxy)propyl)phenoxy)acetic acid] were -0.8% and 6.6%.
Take `COc1ccc(CC[C@@H](OC(=O)[C@@H]2CCCCN2S(=O)(=O)c2ccc3c(ccn3C)c2)c2cccc(OCC(=O)O)c2)cc1OC` [Compound 50, 2-(3-((R)-3-(3,4-dimethoxyphenyl)-1-((S)-1-(1-methyl-1H-indol-5-ylsulfonyl)piperidine-2-carbonyloxy)propyl)phenoxy)acetic acid]: the inhibition at 5 µM in assay [1] is 10%; in assay [2], 10.4%.
For `COc1ccc(CC[C@@H](OC(=O)[C@@H]2CCCCN2S(=O)(=O)c2ccc3c(c2)N(C)CCO3)c2cccc(OCC(=O)O)c2)cc1OC` [Compound 51, 2-(3-((R)-3-(3,4-dimethoxyphenyl)-1-((S)-1-(4-methyl-3,4-dihydro-2H-benzo[b][1,4]oxazin-6-ylsulfonyl)piperidine-2-carbonyloxy)propyl)phenoxy)acetic acid], in that order: 9.5% and 6.6%.
